Reference: patent US4609640A, “Preparation having excellent absorption property” (priority 1981, dated 1986)

Conditions: rat, in vivo
Protocol: Subsequently, these samples were administered to Wistar-strain rats as shown below and quantities of Cephalothin disappeared by absorption were measured.
In the experiment, Wistar-strain male rats, weighing 250 to 300 g, were narcotized with pentobarbital (50 mg/kg) and thereafter subjected to hypoabdominal incision for a first cannulation at a position about 1.5 cm from the anus and also another cannulation at a position 5 cm above the first cannulation. Subsequently, the rectum was internally washed with about 20 ml of isotonic sodium chloride solution kept at 38° C., and each sample was circulated at a flow rate of 2 ml/minute for 5 minutes to make the concentration in the system constant. Then, 6 ml of each sample was circulated at a flow rate of 2 ml/minute, and samples each of 0.05 ml were collected at intervals of 10 minutes. Each sample was diluted and the quantity of Cephalothin disappeared was determined by UV-spectrophotometer or high-speed liquid chromatography.

pectinic acid
absorption of Cephalothin: improves remarkably absorption of Cephalothin
absorption of Cephalothin under hyper tonic conditions: further improvement
